Experimental findings from patent US20090317376A1, “Compositions And Methods For Lipo Modeling” (Georgetown University MEDICAL SCHOOL, priority 2005, published 2009) are described below.

“Also recorded” adds a separate entry of the source.

This assay concerns abdominal fat pad. As to the kind of experiment: Local NPY or Y2R antagonist treatment of the abdominal fat pad (ob/ob, WT, eNOS−/− mice). Format: in vivo. Particulars: for capillary density / density of von Willebrand factor positive microvessels in abdominal fat: Y2R antagonist intra-fat vs vehicle; for fat in the region of the pellet (MRI thresholded for fat): compared to Placebo pellets, FIG. 9; for adipocyte number and size, Y2R staining in subcutaneous abdominal fat pad (immunohistochemistry): FIG. 10. As for the experimental part:
Eight week old ob/ob mice are used to study the growth of adipose tissue when treated with growth factor NPY versus antagonist. Whether the Y2R antagonist causes regression of fat deposits is determined using an antagonist in older 3-6 month old ob/ob mice. […] Fat pads (subcutaneous abdominal, omental, subcutaneous, sternal, and interscapular) are harvested and examined to determine whether there is hyperplasia, hypertrophy, or apoptosis of the fat cells. Whether NPY-mediated angiogenesis is involved in adipose tissue growth is determined. The anti-angiogenic effects and consequences of Y2R antagonist on adipose tissue growth is determined by subcutaneous injections of Y2R antagonist BIIE0246 (0.2 ml, 1 μM, daily/14 days) periabdominally into the abdominal fat pad or subcutaneous implantation of a slow-release pellet containing BIE0246 (10 μg/14 days) followed by an evaluation of the fat deposits by MRI. These fat pads are then harvested, weighed, and stained for endothelial markers and NPYRs. Fat pads are further characterized by RT-PCR, quantitative real-time PCR, and ELISA.
NPY slow-release pellets (1 μg/14 days) are inserted subcutaneously into the abdominal fat pad of ob/ob, C57BL/6 and SV129 WT mice. […] NPY pellets are also inserted into eNOS^−/− -mice. […] Specific peptide Y2R antagonist, BIIE0246, is subcutaneously injected periabdominally (0.2 ml, 1 μM, daily/14 days) or is given in the form of a slow release pellet (10 μg/14 days). […] Changes in visceral fat are visualized by MRI and quantified by volumetric calculations (FIG. 9). Fat pad weight is also measured upon euthanasia of the mice (FIG. 8).
In vivo treatment of murine model of obesity with antagonist: 6-week-old mice from four murine strains: C57BL-6, ob/ob, SV129, and eNOS^−/− are used. The mice are separated into treatment groups to compare the effects of diet, stress, NPY and specific receptor antagonists. The mice are weighed every other day during the course of the treatment. Control groups for the transgenic mice are matched by background strain, age, and gender. WT C57BL/6 mice (a background strain predisposed to weight gain [64]) is fed a “comfort food diet” consisting of lard and sugar and subjected to cold stress (1 hour in a cage with 1 cm of ice and water at the base of the cage). NPY is delivered locally by the implantation of a NPY slow-release pellet ([…]) into the abdominal fat pad. NPY receptor antagonists or antisense ODN is delivered by rotating daily subcutaneous injections (0.2 ml, 1 μM, daily/14 days) in the abdominal region. 20-mer phosphorothioate oligonucleotide antisense, targeted forward from rat Y2-gene transcription initiation codon (5-[…]-3′) (Molecular Research Laboratories, Herndon, Va.) is used. The scrambled antisense sequence contains some modified deoxynucleotides in a random order (5′-[…]-3′).
Tissue sample collection and processing: After treatment, fat pads are harvested from: 1) subcutaneous abdominal, 2) intra-abdominal (omental), 3) inguinal, 4) interscapular. The total central fat (abdominal region only) weight (FW) and FW to percent of body weight (F/B) is measured. The adipose tissue is processed for paraffin embedding and sections, […], are collected on glass slides for immunohistochemistry. 50 mg of tissue is used for quantitative real-time RT-PCR.
Magnetic Resonance Imaging (MRI): A Brukker 7-Tesla small-animal magnetic resonance imager coil is used to visualize and noninvasively quantitate various fat depots. A 3-dimensional (3D) T2-weighted (T2W) imaging protocol optimized for high contrast fat-imaging is implemented. […] Quantification of the total body fat as well as separate specific fat depots is calculated using thresholding and voxel count plugins from NIH image J software. VolumeJ is used to render, in a 3D image, the various fat depots.

Where [1] appears, read: 8-week old ob/ob mice, s.c. 0.2 ml, 1 μM, daily/14 days or pellet 10 μg/14 days, vs saline/PLC.
Setting [2] is: BIIE0246 1 μM/day s.c. into the abdominal pads, within 2-weeks.
Setting [3] is: NPY 1 μg/14 day-pellet, both obese and lean mice.
Setting [4] is: NPY slow-release pellet 1 μg/14 days vs placebo, ob/ob, C57BL/6 and SV129 WT mice.

Take `N=C(N)NCCC[C@H](NC(=O)CC1(CC(=O)N2CCN(C3c4ccccc4NC(=O)c4ccccc43)CC2)CCCC1)C(=O)NCCn1c(=O)n(-c2ccccc2)n(-c2ccccc2)c1=O` (some centres unmarked) [BIIE0246]: the “fat in the region of the pellet (MRI thresholded for fat)” value is recorded as “decreased fat”. Moreover, under setting [1], the “decrease in F/B” value is reported as 40% and the “decrease in FW” value is 40%. Moreover, under setting [2], the “decrease of abdominal pad volume” value was determined as 50% and the “decrease of abdominal pad weight” value was determined as 50%. For the same compound, the “capillary density / density of von Willebrand factor positive microvessels in abdominal fat” value (listed as Y2R antagonist) is “decreased the density of von Willebrand-positive microvessels”. The “capillary density / density of von Willebrand factor positive microvessels in abdominal fat” value (listed as Y2R-antagonist) is listed as “significant decrease in capillary density”. Moreover, the “TUNEL-positive staining of endothelial cells and adipocytes” value (intra-fat injections of Y2R antagonist) is on record as “increasing TUNEL-positive staining”. Besides, the “adipocyte number and size, Y2R staining in subcutaneous abdominal fat pad (immunohistochemistry)” value (ob/ob mice) is “fewer but larger adipocytes and fewer Y2Rs”.
With neuropeptide Y [NPY], the “fat in the region of the pellet (MRI thresholded for fat)” value was “increased fat”. Moreover, under setting [3], the “subcutaneous abdominal adipose tissue volume (MRI)” value was “significantly increased” and the “subcutaneous abdominal adipose tissue weight (g)” value was “significantly increased”. Besides, the “WAT cellularity, proliferation of small adipocytes” value (NPY in WT mice) is on record as “mimicked”. In addition, for the setting “NPY pellet, eNOS−/− mice”, the “FW to body weight ratio (F/B)” value was “no significant weight gain” and the “total central fat weight (FW) / fat pad weight” value is recorded as “no significant weight gain”. Under setting [4], the “FW to body weight ratio (F/B)” value is given as “significant increase” and the “total central fat weight (FW) / fat pad weight” value is “significant increase; also recorded: Increase of fat pad weight”. Further, for the setting “mice deficient in endothelial nitric oxide synthase”, the “adipogenic activity in eNOS−/− mice” value is recorded as “resistant to NPY's adipogenic activity”. Besides, where the note is “ob/ob mice, NPY, FIG. 8”, the visceral fat entry is given as “increases visceral fat”. The “adipocyte number and size, Y2R staining in subcutaneous abdominal fat pad (immunohistochemistry)” value (ob/ob mice) is given as “greater number of smaller adipocytes”.
